Patent US9586931B2 (Merck Sharp & Dohme Corp., priority 2012, dated 2017)

Each molecule was assayed against T1, recombinant human GST-Syk (Homo sapiens, UniProt P43405) (assay: Homogeneous Time-Resolved Fluorescence (HTRF) assay for the recombinant human Syk enzyme). Details: recombinant human GST-Syk 5 pM, ATP 25 μM, 10-dose titration 10 μM to 0.508 nM; read-out: rhSYK Activity IC50.
T1 construct: purchased Carna Biosciences 08-176
Type: biochemical
Protocol: Syk inhibition may be determined using the following assay protocol:
Homogeneous Time-Resolved Fluorescence (HTRF) assay for the recombinant human Syk enzyme: A recombinant GST-hSyk fusion protein was used to measure potency of compounds to inhibit human Syk activity. […] Final volume of the reaction was 10 μL. Phosphorylation of the peptide was allowed to proceed for 45 minutes at room temperature. To quench the reaction and detect the phosphorylated product, 2 nM of a Europium-anti-phosphotyrosine antibody (Perkin Elmer #AD0161) and 70 nM SA-APC (Perkin-Elmer #CR130-100) were added together in 15 mM Tris pH 7.5, 40 mM EDTA, 0.01% tween 20. Final volume of the quenching solution was 10 μL. The resulting HTRF signal was measured after 30 minutes on an EnVision (Perkin-Elmer) reader using a time-resolved fluorescence protocol.
Work on `Cc1cc(Nc2cc(C(F)(F)F)ccn2)nc(-c2cn(C3CCCCC3O)nn2)c1` (racemic) [Example 5.89, 2-[4-(4-methyl-6-{[4-(trifluoromethyl)pyridin-2-yl]amino}pyridin-2-yl)-1H-1,2,3-triazol-1-yl]cyclohexanol] yielded an IC50 of 0.004 µM. In the case of `Cc1cc(Nc2cc(C(F)(F)F)ccn2)nc(-c2cn(CC(O)CF)nn2)c1` (racemic) [Example 5.93, 1-fluoro-3-[4-(4-methyl-6-{[4-(trifluoromethyl)pyridin-2-yl]amino}pyridin-2-yl)-1H-1,2,3-triazol-1-yl]propan-2-ol], the IC50 is reported as 0.006 µM. Work on `Cc1cc(Nc2cc(C(F)(F)F)ccn2)nc(-c2cn(CC(O)CO)nn2)c1` (racemic) [Example 5.95, 3-[4-(4-methyl-6-{[4-(trifluoromethyl)pyridin-2-yl]amino}pyridin-2-yl)-1H-1,2,3-triazol-1-yl]propane-1,2-diol] yielded an IC50 of 0.0079 µM. With `Cc1cc(Nc2cc(C(F)(F)F)ccn2)nc(-c2cn(C3CCNC(=O)CC3)nn2)c1` (racemic) [Example 11.1, 5-[4-(4-Methyl-6-{[4-(trifluoromethyl)pyridin-2-yl]amino}pyridin-2-yl)-1H-1,2,3-triazol-1-yl]azepan-2-one] the IC50 was 0.0212 µM. For `Cc1cc(Nc2cc(C(F)(F)F)ccn2)nc(-c2cn(C3CCNC(=O)CC3)nn2)c1` (racemic) [Example 11.2, 5-[4-(4-methyl-6-{[4-(trifluoromethyl)pyridin-2-yl]amino}pyridin-2-yl)-1H-1,2,3-triazol-1-yl]azepan-2-one], the IC50 was 0.0238 µM. `Cc1cc(Nc2cc(C(F)(F)F)ccn2)nc(-c2cn(C3CCNC(=O)CC3)nn2)c1` (racemic) [Example 11.3, 5-[4-(4-methyl-6-{[4-(trifluoromethyl)pyridin-2-yl]amino}pyridin-2-yl)-1H-1,2,3-triazol-1-yl]azepan-2-one] was tested, and the IC50 was 0.118 µM. For `Cc1cc(Nc2cc(C(F)(F)F)ccn2)nc(-c2cn([C@@H]3CN(C(=O)CO)C[C@H]3O)nn2)c1` (racemic) [Example 13.1, (+/−)-2-Bydroxy-1-((3R,4R)-3-hydroxy-4-(4-(4-methyl-6-((4-(trifluoromethyl)pyridin-2-yl)amino)pyridin-2-yl)-1H-1,2,3-triazol-1-yl)pyrrolidin-1-yl)ethanone], the IC50 was 0.0042 µM. `Cc1cc(Nc2nccc(C(F)(F)F)n2)cc(-c2cn([C@@H]3CCC[C@H](O)C3)nn2)c1` (racemic) [Example 17.1, Racemic cis-3-(4-(3-methyl-5-((4-(trifluoromethyl)pyrimidin-2-yl)amino)phenyl)-1H-1,2,3-triazol-1-yl)cyclohexanol] gave an IC50 of 0.0554 µM. Molecule `Cc1cc(Nc2cc(C(F)(F)F)ccn2)nc(-c2cn(C3CNCC3O)nn2)c1` (racemic) [Example 19.1, (+/−)-(3S,4R)-4-(4-(4-Methyl-6-((4-(trifluoromethyl)pyridin-2-yl)amino)pyridin-2-yl)-1H-1,2,3-triazol-1-yl)pyrrolidin-3-ol] has an IC50 of 0.0323 µM. `Cc1cc(Nc2nccc(C(F)(F)F)n2)cc(-c2cn(CC(=O)N3[C@@H](C)COC[C@@H]3C)nn2)c1` (relative stereo) [Example 5.47, N-[3-(1-{2-[trans-3,5-dimethylmorpholin-4-yl]-2-oxoethyl}-1H-1,2,3-triazol-4-yl)-5-methylphenyl]-4-(trifluoromethyl)pyrimidin-2-amine] showed an IC50 of 0.0802 µM. `Cc1cc(Nc2cc(C(F)(F)F)ccn2)nc(-c2cn(C3CCC(C(N)=O)C(C)(C)C3)nn2)c1` (single isomer, unassigned) [Example 1.4, 2,2-dimethyl-4-[4-(4-methyl-6-{[4-(trifluoromethyl)pyridin-2-yl]amino}pyridin-2-yl)-1H-1,2,3-triazol-1-yl]cyclohexanecarboxamide] showed an IC50 of 0.0038 µM. `Cc1cc(Nc2cc(C(F)(F)F)ccn2)nc(-c2cn(C3CCC(C(N)=O)C(C)(C)C3)nn2)c1` (single isomer, unassigned) [Example 1.5, 2,2-dimethyl-4-[4-(4-methyl-6-{[4-(trifluoromethyl)pyridin-2-yl]amino}pyridin-2-yl)-1H-1,2,3-triazol-1-yl]cyclohexanecarboxamide] gave an IC50 of 0.008 µM. `Cc1cc(Nc2cc(C(F)(F)F)ccn2)nc(-c2cn(C3CCC(C(N)=O)C(C)(C)C3)nn2)c1` (single isomer, unassigned) [Example 1.6, 2,2-dimethyl-4-[4-(4-methyl-6-{[4-(trifluoromethyl)pyridin-2-yl]amino}pyridin-2-yl)-1H-1,2,3-triazol-1-yl]cyclohexanecarboxamide] was tested, and the IC50 was 0.0266 µM. For `Cc1cc(Nc2cc(C(F)(F)F)ccn2)nc(-c2cn(C3CCC(C(N)=O)C(C)(C)C3)nn2)c1` (single isomer, unassigned) [Example 1.8, 2,2-dimethyl-4-[4-(4-methyl-6-{[4-(trifluoromethyl)pyridin-2-yl]amino}pyridin-2-yl)-1H-1,2,3-triazol-1-yl]cyclohexanecarboxamide], the IC50 was 0.0058 µM. Work on `Cc1cc(Nc2cc(C(F)(F)F)ccn2)nc(-c2cn(CC3(O)CCC(C(=O)O)C(C)(C)C3)nn2)c1` (single isomer, unassigned) [Example 3.1, (R or S) 4-hydroxy-2,2-dimethyl-4-{[4-(4-methyl-6-{[4-(trifluoromethyl)pyridin-2-yl]amino}pyridin-2-yl)-1H-1,2,3-triazol-1-yl]methyl}cyclohexanecarboxylic acid] yielded an IC50 of 0.0607 µM. For `Cc1cc(Nc2nccc(C(F)(F)F)n2)cc(-c2cn(CC3(O)CCC(C(=O)O)C(C)(C)C3)nn2)c1` (single isomer, unassigned) [Example 3.2, (R or S) 4-hydroxy-2,2-dimethyl-4-{[4-(3-methyl-5-{[4-(trifluoromethyl)pyrimidin-2-yl]amino}phenyl)-1H-1,2,3-triazol-1-yl]methyl}cyclohexanecarboxylic acid], the IC50 was 0.0468 µM. Molecule `Cc1cc(Nc2nccc(C(F)(F)F)n2)cc(-c2cn(CC3(O)CCC(C(=O)O)C(C)(C)C3)nn2)c1` (single isomer, unassigned) [Example 3.3, (R or S) 4-hydroxy-2,2-dimethyl-4-{[4-(3-methyl-5-{4-(trifluoromethyl)pyrimidin-2-yl]amino}phenyl)-1H-1,2,3-triazol-1-yl]methyl}cyclohexanecarboxylic acid] has an IC50 of 0.0543 µM. For `Cc1cc(Nc2cc(C(F)(F)F)ccn2)nc(-c2cn(C3CCC(C(=O)O)C(C)(C)C3)nn2)c1` (single isomer, unassigned) [Example 3.6, (R or S) 2,2-dimethyl-4-[4-(4-methyl-6-{[4-(trifluoromethyl)pyridin-2-yl]amino}pyridin-2-yl)-1H-1,2,3-triazol-1-yl]cyclohexanecarboxylic acid], the IC50 was 0.0035 µM. With `Cc1cc(Nc2cc(C(F)(F)F)ccn2)nc(-c2cn(C3CCC(C(=O)O)C(C)(C)C3)nn2)c1` (single isomer, unassigned) [Example 3.7, (R or S) 2,2-dimethyl-4-[4-(4-methyl-6-{[4-(trifluoromethyl)pyridin-2-yl]amino}pyridin-2-yl)-1H-1,2,3-triazol-1-yl]cyclohexanecarboxylic acid] the IC50 was 0.0037 µM. `Cc1cc(Nc2cc(C(F)(F)F)ccn2)nc(-c2cn(C3CCC(C(=O)O)C(C)(C)C3)nn2)c1` (single isomer, unassigned) [Example 3.8, 2,2-dimethyl-4-[4-(4-methyl-6-{[4-(trifluoromethyl)pyridin-2-yl]amino}pyridin-2-yl)-1H-1,2,3-triazol-1-yl]cyclohexanecarboxylic acid] gave an IC50 of 0.0098 µM. Work on `Cc1cc(Nc2cc(C(F)(F)F)ccn2)nc(-c2cn(C3CCC(C(=O)O)C(C)(C)C3)nn2)c1` (single isomer, unassigned) [Example 3.9, 2,2-dimethyl-4-[4-(4-methyl-6-{[4-(trifluoromethyl)pyridin-2-yl]amino}pyridin-2-yl)-1H-1,2,3-triazol-1-yl]cyclohexanecarboxylic acid] yielded an IC50 of 0.003 µM. `Cc1cc(Nc2nccc(C(F)(F)F)n2)cc(-c2cn(C3COCC3O)nn2)c1` (single isomer, unassigned) [Example 4.4, 4-[4-(3-methyl-5-{[4-(trifluoromethyl)pyrimidin-2-yl]amino}phenyl)-1H-1,2,3-triazol-1-yl]tetrahydrofuran-3-ol] was tested, and the IC50 was 0.0261 µM. For `Cc1cc(Nc2nccc(C(F)(F)F)n2)cc(-c2cn(C3COCC3O)nn2)c1` (single isomer, unassigned) [Example 4.5, 4-[4-(3-methyl-5-{[4-(trifluoromethyl)pyrimidin-2-yl]amino}phenyl)-1H-1,2,3-triazol-1-yl]tetrahydrofuran-3-ol], the IC50 was 0.0612 µM. Work on `Cc1cc(Nc2nccc(C(F)(F)F)n2)cc(-c2cn(C(C)C(O)CC#N)nn2)c1` (single isomer, unassigned) [Example 4.6, 3-hydroxy-4-[4-(3-methyl-5-{[4-(trifluoromethyl)pyrimidin-2-yl]amino}phenyl)-1H-1,2,3-triazol-1-yl]pentanenitrile] yielded an IC50 of 0.0455 µM. Work on `Cc1cc(Nc2nccc(C(F)(F)F)n2)cc(-c2cn(C(C)C(O)CC#N)nn2)c1` (single isomer, unassigned) [Example 4.7, 3-hydroxy-4-[4-(3-methyl-5-{[4-(trifluoromethyl)pyrimidin-2-yl]amino}phenyl)-1H-1,2,3-triazol-1-yl]pentanenitrile] yielded an IC50 of 0.0158 µM. For `Cc1cc(Nc2nccc(C(F)(F)F)n2)cc(-c2cn(C3COCC3O)nn2)c1` (single isomer, unassigned) [Example 4.8, 4-[4-(3-methyl-5-{[4-(trifluoromethyl)pyrimidin-2-yl]amino}phenyl)-1H-1,2,3-triazol-1-yl]tetrahydrofuran-3-ol], the IC50 was 0.0351 µM.
